Source: ChEMBL document CHEMBL4765295, “Synthesis, pharmacological profile and 2D-QSAR studies of curcumin-amino acid conjugates as potential drug candidates” (Eur J Med Chem, 2020)
Where “and” joins values, the source holds several entries; their conditions need not be identical. Equal entries are not always repeated.

Legend:
[1] = test system: Rattus norvegicus; assay: Antiinflammatory activity in Wistar rat model of carrageenan-induced paw edema assessed as reduction in thickness of paw edema at 10 mg/kg, ip pretreated for 1 hr followed by carrageenan challenge and measured after 1 hr (reference value: 2.41 +/-0.05 mm); assay type: functional; conditions: time 1 hr after carrageenan
[2] = test system: Rattus norvegicus; assay: Anti-inflammatory activity in Wistar rat assessed as inhibition of carrageenan-induced paw edema at 10 mg/kg, ip pretreated for 1 hr followed by carrageenan challenge and measured after 1 hr relative to control (reference value: 0.00 +/-0.02 %); assay type: functional; conditions: time 2 hrs
[3] = test system: Rattus norvegicus; assay: Antiinflammatory activity in Wistar rat model of carrageenan-induced paw edema assessed as reduction in thickness of paw edema at 10 mg/kg, ip pretreated for 1 hr followed by carrageenan challenge and measured after 2 hrs (reference value: 2.06 +/-0.09 mm); assay type: functional; conditions: time 3 hrs
[4] = test system: Rattus norvegicus; assay: Anti-inflammatory activity in Wistar rat assessed as inhibition of carrageenan-induced paw edema at 10 mg/kg, ip pretreated for 1 hr followed by carrageenan challenge and measured after 2 hr relative to control (reference value: 0.00 +/-0.03 %); assay type: functional; conditions: time 3 hrs
[5] = test system: Rattus norvegicus; assay: Antiinflammatory activity in Wistar rat model of carrageenan-induced paw edema assessed as reduction in thickness of paw edema at 10 mg/kg, ip pretreated for 1 hr followed by carrageenan challenge and measured after 3 hrs (reference value: 1.79 +/-0.07 mm); assay type: functional; conditions: time 4 hrs
[6] = test system: Rattus norvegicus; assay: Anti-inflammatory activity in Wistar rat assessed as inhibition of carrageenan-induced paw edema at 10 mg/kg, ip pretreated for 1 hr followed by carrageenan challenge and measured after 3 hr relative to control (reference value: 0.00 +/-0.1 %); assay type: functional; conditions: time 4 hrs
[7] = test system: Rattus norvegicus; assay: Antiinflammatory activity in Wistar rat model of carrageenan-induced paw edema assessed as reduction in thickness of paw edema at 10 mg/kg, ip pretreated for 1 hr followed by carrageenan challenge and measured after 4 hrs (reference value: 1.40 +/-0.10 mm); assay type: functional; conditions: time 5 hrs
[8] = test system: Rattus norvegicus; assay: Anti-inflammatory activity in Wistar rat assessed as inhibition of carrageenan-induced paw edema at 10 mg/kg, ip pretreated for 1 hr followed by carrageenan challenge and measured after 4 hr relative to control (reference value: 0.00 +/-0.4 %); assay type: functional; conditions: time 5 hrs
[9] = test system: Rattus norvegicus; assay: Antiinflammatory activity in Wistar rat model of carrageenan-induced paw edema assessed as reduction in thickness of paw edema at 10 mg/kg, ip pretreated for 1 hr followed by carrageenan challenge and measured after 24 hrs (reference value: 0.83 +/-0.08 mm); assay type: functional; conditions: time 25 hrs
[10] = test system: Rattus norvegicus; assay: Anti-inflammatory activity in Wistar rat assessed as inhibition of carrageenan-induced paw edema at 10 mg/kg, ip pretreated for 1 hr followed by carrageenan challenge and measured after 24 hr relative to control (reference value: 0.00 +/-0.3 %); assay type: functional; conditions: time 25 hrs
[11] = test system: Rattus norvegicus; assay: Anti-inflammatory activity in Wistar rat assessed as inhibition of carrageenan-induced paw edema at 10 mg/kg, ip pretreated for 1 hr followed by carrageenan challenge and measured after 4 hr relative to indomethacin; assay type: functional; conditions: time 5 hrs
[12] = Ulcerogenic activity in fasted albino mouse assessed as incidence of gastric ulceration at 10 mg/kg, po for 3 days (reference value: 0 %); assay type: toxicity, organism-based; conditions: in vivo, 72 h, time 3 day
[13] = Ulcerogenic activity in fasted albino mouse assessed as average number of ulcers in gastric mucosa at 10 mg/kg, po for 3 days (reference value: 0); assay type: toxicity, organism-based; conditions: in vivo, 72 h, time 3 day
[14] = Ulcerogenic activity in fasted albino mouse assessed as average severity of ulcers in gastric mucosa at 10 mg/kg, po for 3 days (reference value: 0); assay type: toxicity, organism-based; conditions: in vivo, 72 h, time 3 day
[15] = Ulcerogenic activity in fasted albino mouse assessed as ulcer index in gastric mucosa at 10 mg/kg, po for 3 days (reference value: 0); assay type: toxicity, organism-based; conditions: in vivo, 72 h, time 3 day
[16] = test system: Splenocyte; assay: Immunomodulatory activity in Swiss albino mouse splenocytes assessed as cell viability at 10 uM by measuring stimulation index incubated for 72 hrs in presence of mitogenic stimulus phytohaemagglutinin by MTT assay (reference value: 1.00 +/- 0.24); assay type: functional
[17] = test system: Splenocyte; assay: Immunomodulatory activity in Swiss albino mouse splenocytes assessed as cell viability at 10 uM by measuring inhibition of stimulation index incubated for 72 hrs in presence of mitogenic stimulus phytohaemagglutinin by MTT assay relative to indomethacin; assay type: functional; conditions: read-out: Activity
[18] = test system: Mus musculus; assay: Analgesic activity in albino mouse assessed reduction in acetic acid-induced abdominal writhing by measuring writing reflex at 10 mg/kg, ip pretreated for 1 hr followed by acetic acid challenge and measured starting 5 mins post acetic acid challenge for 10 mins (reference value: 42.4 +/- 1.02); assay type: functional; conditions: time 75 min, 1.25 h
[19] = test system: Mus musculus; assay: Analgesic activity in albino mouse assessed protection against acetic acid-induced abdominal writhing at 10 mg/kg, ip pretreated for 1 hr followed by acetic acid challenge and measured starting 5 mins post acetic acid challenge for 10 mins relative to control (reference value: 0 %); assay type: functional; conditions: time 75 min, 1.25 h
[20] = test system: Mus musculus; assay: Analgesic activity in albino mouse assessed protection against acetic acid-induced abdominal writhing at 10 mg/kg, ip pretreated for 1 hr followed by acetic acid challenge and measured starting 5 mins post acetic acid challenge for 10 mins relative to indomethacin; assay type: functional; conditions: time 75 min, 1.25 h
[21] = test system: Mus musculus; assay: Analgesic activity in albino mouse assessed as forepaw licking/jumping latency time at 10 mg/kg, ip measured after 30 mins by hot plate test (reference value: 5.02 +/- 0.09 sec); assay type: functional; conditions: 0.5 h
[22] = test system: Mus musculus; assay: Analgesic activity in albino mouse assessed as protection at 10 mg/kg, ip measured after 30 mins by hot plate test (reference value: 0 %); assay type: functional; conditions: 0.5 h
[23] = test system: Mus musculus; assay: Analgesic activity in albino mouse assessed as forepaw licking/jumping latency time at 10 mg/kg, ip measured after 60 mins by hot plate test (reference value: 3.42 +/- 0.03 sec); assay type: functional; conditions: 1 h
[24] = test system: Mus musculus; assay: Analgesic activity in albino mouse assessed as protection at 10 mg/kg, ip measured after 60 mins by hot plate test (reference value: 0 %); assay type: functional; conditions: 1 h
[25] = test system: Mus musculus; assay: Analgesic activity in albino mouse assessed as forepaw licking/jumping latency time at 10 mg/kg, ip measured after 90 mins by hot plate test (reference value: 2.72 +/- 0.01 sec); assay type: functional; conditions: 1.5 h
[26] = test system: Mus musculus; assay: Analgesic activity in albino mouse assessed as protection at 10 mg/kg, ip measured after 90 mins by hot plate test (reference value: 0 %); assay type: functional; conditions: 1.5 h
[27] = test system: Mus musculus; assay: Analgesic activity in albino mouse assessed as forepaw licking/jumping latency time at 10 mg/kg, ip measured after 120 mins by hot plate test (reference value: 2.62 +/- 0.06 sec); assay type: functional; conditions: 2 h
[28] = test system: Mus musculus; assay: Analgesic activity in albino mouse assessed as protection at 10 mg/kg, ip measured after 120 mins by hot plate test (reference value: 0 %); assay type: functional; conditions: 2 h
[29] = test system: Mus musculus; assay: Analgesic activity in albino mouse assessed as protection at 10 mg/kg, ip measured after 120 mins by hot plate test relative to indomethacin; assay type: functional; conditions: 2 h
[30] = test system: Staphylococcus aureus; assay: Antibacterial activity against Staphylococcus aureus ATCC 25923 incubated for 18 hrs by agar dilution method; assay type: functional
[31] = test system: Streptococcus pyogenes; assay: Antibacterial activity against Streptococcus pyogenes ATCC 19615 incubated for 18 hrs by agar dilution method; assay type: functional
[32] = test system: Salmonella typhimurium; assay: Antibacterial activity against Salmonella typhimurium ATCC 19430 incubated for 18 hrs by agar dilution assay; assay type: functional, Salmonella enterica subsp. enterica serovar Typhimurium; conditions: Salmonella enterica
[33] = test system: Pseudomonas aeruginosa; assay: Antibacterial activity against Pseudomonas aeruginosa ATCC 27853 incubated for 18 hrs by agar dilution assay; assay type: functional
[34] = test system: Candida albicans; assay: Antifungal activity against Candida albicans incubated for 18 to 24 hrs by CLSI method; assay type: functional; conditions: time 18-24 hrs
[35] = Toxicity in albino mouse assessed as induction of toxic symptoms at 50 to 100 mg/kg, ip measured after 24 hrs; assay type: organism-based; conditions: in vivo, dose 50-100 mg/kg
[36] = test system: Peritoneal macrophage; assay: Antiinflammatory activity in […] mouse Peritoneal macrophages assessed as reduction in LPS-induced NO production by measuring reduction in stimulation index at 10 uM preincubated for 1 hr followed by LPS stimulation measured after 24 hrs by Griess method (reference value: 27.31 +/- 2.56 uM); assay type: functional; conditions: time 25 hrs
[37] = test system: Peritoneal macrophage; assay: Antiinflammatory activity in […] mouse Peritoneal macrophages assessed as inhibition of LPS-induced NO production at 10 uM preincubated for 1 hr followed by LPS stimulation measured after 24 hrs by Griess method relative to control (reference value: 0.0 %); assay type: functional; design: scale not given: the % may be the effect or the level left; conditions: time 25 hrs

Row | SMILES | Activity [1] [mm] | inhibition in vivo at 10 mg/kg [2] [%] | Activity [3] [mm] | inhibition in vivo at 10 mg/kg [4] [%] | Activity [5] [mm] | inhibition in vivo at 10 mg/kg [6] [%] | Activity [7] [mm] | inhibition in vivo at 10 mg/kg [8] [%] | Activity [9] [mm] | inhibition in vivo at 10 mg/kg [10] [%] | inhibition in vivo at 10 mg/kg [11] [%] | Activity [12] [%] | Activity [13] | Activity [14] | UI [15] | Activity_index [16] | viability at 10 µM [17] [%] | Activity [18] | Activity [19] [%] | Activity [20] [%] | also measured
1 | COc1cc(/C=C/C(=O)/C=C(O)/C=C/c2ccc(OC(=O)[C@@H](CCSC)NC(=O)OC(C)(C)C)c(OC)c2)ccc1OC(=O)[C@@H](CCSC)NC(=O)OC(C)(C)C | 1.1 | 58 | 0.63 | 69 | 0.47 | 74 | 0.15 | 89 | 0.49 | 41 | 102 | 0 | 0 | 0 | 0 | 2.53 | 47.7 | 19.6 | 53.8 | 87.3 | Time [21]: 5.14 s; Activity [22]: 2.4%; Time [23]: 5.48 s; Activity [24]: 60.2%; Time [25]: 4.82 s; Activity [26]: 77.2%; Time [27]: 4.48 s; Activity [28]: 71%; Activity [29]: 169%; MIC [30]: 0.25 µg/mL and 0.301 µM; MIC [31]: 0.125 µg/mL and 0.15 µM; MIC [32]: 1 µg/mL and 1.2 µM; MIC [33]: 0.25 µg/mL and 0.301 µM; MIC [34]: 0.5 µg/mL and 0.602 µM; Activity [35]: Non-Toxic
2 | COc1cc(/C=C/C(=O)/C=C(O)/C=C/c2ccc(OC(=O)C(C)NC(=O)OCc3ccccc3)c(OC)c2)ccc1OC(=O)C(C)NC(=O)OCc1ccccc1 (configuration not stated) | 0.67 | 72 | 0.26 | 87 | 0.05 | 97 | 0 | 100 | 0 | 100 | 115 | 3.33 | 0.67 | 0.67 | 4.67 | 1.18 | 103 | 19.75 | 53.4 | 86.7 | Activity [36]: 14.91 µM; Activity [37]: 45.41%; Time [21]: 6.26 s; Activity [22]: 24.7%; Time [23]: 5.24 s; Activity [24]: 53.2%; Time [25]: 3.22 s; Activity [26]: 18.4%; Time [27]: 3.12 s; Activity [28]: 19.1%; Activity [29]: 45.5%; MIC [30]: 0.5 µg/mL and 0.642 µM; MIC [31]: 0.125 µg/mL and 0.161 µM; MIC [32]: 0.5 µg/mL and 0.642 µM; MIC [33]: 0.25 µg/mL and 0.321 µM; MIC [34]: 0.5 µg/mL and 0.642 µM; Activity [35]: Non-Toxic
